Experimental data reported in US4061737A, “Method for stimulating release of prolactin” (American Home Products Corporation, priority 1976, dated 1977).

Key:
mouse vas deferens = details: cited from earlier work
guinea pig ileum = details: cited from earlier work
[1] = test system: Male Charles River CD rats; experiment: Prolactin plasma levels in rats 15 minutes after enkephalin injection (radioimmunoassay); format: in vivo, rat; details: for Change in prolactin levels upon injection (in words): 5 mg/kg., subcutaneous or intravenous
Method: Male Charles River CD rats were injected with the enkephalin (in saline) or saline alone either subcutaneously or intravenously via the femoral vein. Fifteen minutes later the animals were decapitated and blood collected (12 mg. versene and 6000 units of Trasylol added per tube). Each plasma sample was assayed for prolactin in quadruplicate by specific double antibody radioimmunoassays, using NIAMDD reagents and the procedure of Neill and Reichert, Endocrinology, 88, 548 (1971).

opiate receptor sites = details: cited from earlier work
rat pituitary cells = experiment: Prolactin release in monolayer cultures of rat pituitary cells; format: cell-based; details: for Prolactin release versus control (in words): all levels from 5 ng/ml to 50 μg/ml; for Prolactin Release (mean ± SEM): 3 hours at 37° C., control 197 ± 13
Method: Monolayer cultures of enzymatically dispersed pituitary cells were prepared from male rats, using Eagle's minimal essential medium for growth. After incubation in triplicate dishes for 3 hours at 37° C. in 95% air: 5% CO2, the supernatant from each dish was assayed for prolactin in duplicate.

[2] = in vivo; cited from earlier work
[3] = Experiment 2, 5mg/kg. SC, 15 minutes after injection, control 40 ± 3

| SMILES | Contractions of mouse vas deferens (in words) (mouse vas deferens) | Contractions of guinea pig ileum (in words) (guinea pig ileum) | Change in prolactin levels upon injection (in words) [1] | Prolactin plasma level (mean ± SEM) [1, 3] | Prolactin plasma level (mean ± SEM) ([1]; Experiment 3, 5mg/kg. IV, 15 minutes after injection, control 20 ± 1) | Prolactin plasma level (mean ± SEM) ([1]; rat, in vivo) | Stereospecific binding of 3H-naloxone to guinea pig brain (in words) (opiate receptor sites) | Prolactin release versus control (in words) (rat pituitary cells) | Prolactin release compared with leucine-enkephalin (in words) (rat pituitary cells; difference statistically significant at 50 μg/ml and 500 ng/ml) | Prolactin Release (mean ± SEM) (rat pituitary cells; enkephalin 5 ng/ml) | Prolactin Release (mean ± SEM) (rat pituitary cells; enkephalin 50 ng/ml) | Prolactin Release (mean ± SEM) (rat pituitary cells; enkephalin 500 ng/ml) | Prolactin Release (mean ± SEM) (rat pituitary cells; enkephalin 5 μg/ml) | Prolactin Release (mean ± SEM) (rat pituitary cells; enkephalin 50 μg/ml) | Prolactin levels (in words) [2] | Prolactin plasma level (mean ± SEM) ([1]; Experiment 1, 5mg/kg. SC, 15 minutes after injection, control 29 ± 3) | Prolactin plasma level (mean ± SEM) ([1]; Experiment 4, 5mg/kg. IV, 15 minutes after injection, control 43 ± 7) | Prolactin plasma level (mean ± SEM) ([1]; Experiment 5, 5mg/kg. IV, 15 minutes after injection, control 31 ± 3) | Prolactin plasma level (mean ± SEM) ([1]; Experiment 6, 5mg/kg. IV, 15 minutes after injection, control 47 ± 5) | Prolactin plasma level (mean ± SEM) ([1]; Experiment 8, 5mg/kg. IV, 15 minutes after injection, control 63 ± 10) |
| --- | --- | --- | --- | --- | --- | --- | --- | --- | --- | --- | --- | --- | --- | --- | --- | --- | --- | --- | --- | --- |
| CSCC[C@H](NC(=O)[C@H](Cc1ccccc1)NC(=O)CNC(=O)CNC(=O)[C@@H](N)Cc1ccc(O)cc1)C(=O)O [Met-Enkephalin, H-Tyr-Gly-Gly-Phe-Met-OH] | inhibit | inhibit | consistent, statistically significant increase | 49 ± 3 ng/mL | 24 ± 1 ng/mL | 43 ± 3 | inhibit | significantly increased | greater release of prolactin than leucine-enkephalin | 261 ± 15 ng/mL | 257 ± 14 ng/mL | 305 ± 14 ng/mL | 255 ± 10 ng/mL | 307 ± 8 ng/mL |  |  |  |  |  |  |
| CN1CC[C@]23c4c5ccc(O)c4O[C@H]2[C@@H](O)C=C[C@H]3[C@H]1C5 [morphine, reference compound] | also elicited by morphine | also elicited by morphine |  |  |  |  |  |  |  |  |  |  |  |  | can raise prolactin levels |  |  |  |  |  |
| CC(C)C[C@H](NC(=O)[C@H](Cc1ccccc1)NC(=O)CNC(=O)CNC(=O)[C@@H](N)Cc1ccc(O)cc1)C(=O)O [Leu-Enkephalin, H-Tyr-Gly-Gly-Phe-Leu-OH] | inhibit | inhibit | more variable | 40 ± 3 ng/mL |  |  | inhibit | significantly increased |  | 247 ± 7 ng/mL | 254 ± 14 ng/mL | 253 ± 18 ng/mL | 244 ± 10 ng/mL | 260 ± 15 ng/mL |  | 40 ± 6 ng/mL | 29 ± 5 ng/mL | 55 ± 5 ng/mL | 59 ± 11 ng/mL | 61 ± 10 ng/mL |
